Experimental data reported in EP0309566B1, “STLV-III-RELATED POLYPEPTIDES, DIAGNOSTIC SYSTEMS AND ASSAY METHODS” (JOHNSON AND JOHNSON, priority 1987, dated 1994).

Legend:
[1] = test system: antibodies against HIV-2; assay: ELISA with STLV-III polypeptides p80 and p81, alone and in combination; assay type: binding, human; conditions: two sera containing high titers of antibodies against HIV-2, diluted 1:10; 490nm
Experimental: Preliminary studies using two sera containing high titers of antibodies against HIV-2 were performed by ELISA using each of p80 and p81 alone and in combination. One hundred microliters (ul) of 0.01M NaHCO₃, pH 9.6, containing 1 microgram (ug) of either p80 or p81 or a combination (admixture) of 1 ug of p80 and 1 ug of p81 were admixed into the wells of Immunolon II microtiter plates (Dynatech, Alexandria, VA). The plates were then maintained for about 16 hours at 4 degrees C to permit the polypeptides to adsorb onto (coat) the walls of the wells. After removing the polypeptide coating solution by shaking, 300 ul of PBS containing 1% bovine serum albumin (BSA), 5mM benzamidine, 10 kilounits Aprotinin, 10ug/ml Trypsin Inhibitor, 10mM EACA, 0.5mM PMSF, 2mM EDTA and 10% glycerol were admixed into each well to block excess protein binding sites. […]
Two hundred ul of OPD substrate were then admixed into each well to form a developing-reaction admixture. After maintaining the developing-reaction admixture for 30 minutes at about 20 degrees C, 50 ul of 4N H₂SO₄ were admixed into each well to stop the developing-reaction, and the resulting solutions were assayed for absorbance at 490nm using a microtiter plate reader.

[2] = test system: 24 sera; assay: Comparison of peptide p80 based and peptide p81 based ELISA, 24 sera; assay type: binding
Description: The absorbance values obtained for each of 24 sera in a peptide p80 based ELISA were divided by those obtained in a peptide p81 based ELISA. The resulting absorbance value ratios are shown in ranked order in Table 14.

[3] = test system: HIV-1 antibodies; assay: ELISA of serum panels: E8 assay (peptide (II) as solid phase antigen, Procedure #1) compared with commercial viral lysate kits; assay type: binding, human; set-up: key: (+)=False Positives; conditions: 6 samples; NPC/NON-AIDS
Experimental: (§1) • (1) coat ELISA plate with peptide - 1ug/50ul/well in 0.1M NaHCO₃, pH 9; • (2) let plates dry overnight uncovered at 37°C; then wash with PBS; • (3) block plates with 300ul/well of blocking buffer (5% NCS-PBS) for 2 hrs. at 37°C; • (4) shake out blocking buffer and drain well; • (5) add 50ul/well test antiserum (first antibody) for 30 to 120 minutes at 37°C. (If the antiserum is to be diluted, use T-wash.) Dilutions of 1:2 to 1:100 have been used; • (6) shake out test antisera and wash plate six times with PBS-Tween20; • (7) add 100ul/well of labeled specific binding agent in the form of a enzyme-labeled second antibody diluted 1:4000 with T-wash. Maintain 30 to 120 minutes at 37°C; • (8) shake out any unreacted second antibody and wash plate six times with PBS-Tween20; • (9) add 100ul/well OPD substrate (or 5ul ABTS solution) for 20 minutes at RT; • (10) add 50ul/well of 4N H₂SO₄ to stop OPD reaction (or 100ul/well of 1% SDS for ABTS reaction); • (11) read plate on an MR 500 Microplate ELISA plate reader. […]
(§2) The ELISA kits described in Example 4A made with peptide (II) were evaluated against a panel of sera comprising sera from normal subjects, patients with disorders or diseases unrelated to AIDS, known AIDS patients, known ARC patients, and patients whose diagnosis is unknown but who are antibody-positive for […] antibodies by commercial tests or by Western blot assay. […]

[4] = test system: antibodies to HIV-1; assay: E8 peptide competition (blocking) assay: serum mixed with peptide (II), peptide (II) as solid phase antigen; assay type: binding, human; conditions: last seven samples of Table 7 (antibody positive sera)
Experimental: Presented in Table 7 below are data relating to the assay of various patient sera. In addition to the usual assay with peptide (II) as described in Example 4-Procedure A, each serum was assayed against peptide (II) after mixing the serum sample with an effective blocking amount of the peptide (II). Also included in the Table are the results of assaying each sample with commercially available kits.
Furthermore, even samples incorrectly identified as positive by the E8 assay are correctly identified as negative by the E8 peptide competition assay. […] The last seven samples assayed as shown in Table 7 are positive for antibody by both the E8 assay and commercially available assays (with the exception of two false negatives using the Abbott kit) and by the more tedious and time consuming Western blot assay.

[5] = test system: HIV-1 antibodies; assay: ELISA of serum panels: E8 assay (peptide (II) as solid phase antigen, Procedure #1) compared with commercial viral lysate kits; assay type: binding, human; conditions: 200 normal sera; S.D. 0.017
Experimental: as §1, §2

[6] = test system: HIV-1 antibodies; assay: as above; assay type: binding, human; set-up: key: (-) = False Negatives
Experimental: as §1, with “reader. (490nm for OPD or 405 nm for ABTS).” for “reader.”
as §2

[7] = test system: HIV-1 antibodies; assay: as above; assay type: binding, human; set-up: key: +: antibody-positive; antibody-negative; conditions: E8 absorbance cutoff 0.104
Experimental: as §1, with “reader. (490nm for OPD or 405 nm for ABTS).” for “reader.”
as §2

[8] = test system: antibodies to HIV-1; assay: Competition ELISA, formula (I) peptide as solid phase antigen (Example 4A); assay type: binding, human
Experimental: (§3) • (1) coat ELISA plate with peptide - 1ug/50ul/well in 0.1M NaHCO₃, pH 9; • (2) let plates dry overnight uncovered at 37°C; then wash with PBS; • (3) block plates with 300ul/well of blocking buffer (5% NCS-PBS) for 2 hrs. at 37°C; • (4) shake out blocking buffer and drain well; • (5) add 50ul/well test antiserum (first antibody) for 30 to 120 minutes at 37°C. (If the antiserum is to be diluted, use T-wash.) Dilutions of 1:2 to 1:100 have been used; • (6) shake out test antisera and wash plate six times with PBS-Tween20; • (7) add 100ul/well of labeled specific binding agent in the form of a enzyme-labeled second antibody diluted 1:4000 with T-wash. Maintain 30 to 120 minutes at 37°C; • (8) shake out any unreacted second antibody and wash plate six times with PBS-Tween20; • (9) add 100ul/well OPD substrate (or 5ul ABTS solution) for 20 minutes at RT; • (10) add 50ul/well of 4N H₂SO₄ to stop OPD reaction (or 100ul/well of 1% SDS for ABTS reaction); • (11) read plate on an MR 500 Microplate ELISA plate reader. (490nm for OPD or 405 nm for ABTS).

[9] = test system: antibodies to HIV-1; assay: ELISA with peptides (III) and (IV), AIDS/ARC patient sera (Procedure 1); assay type: binding, human
Experimental: as §3
Additional AIDS/ARC patient sera were assayed with ELISA assays employing the two highly reactive peptides of formulas (III) and (IV) (Example IV-Procedure 1).

[10] = test system: antibodies to HIV-1; assay: Competition ELISA, admixed formula (III) and (IV) peptides as solid phase antigen (Example 4A); assay type: binding, human
Experimental: as §3
Further evidence that more than one epitope is present in formula (III) and (IV) peptides can be deduced from absorbance values obtained from competition studies, the results of an example of which are shown in Table 11. In this study, admixed formula (III) and (IV) peptides were applied to a microtiter plate as the immobilized, solid phase antigen and an ELISA assay (Example 4A) was performed under five different conditions: without competition, or competition with excess formula (III) peptide, formula (IV) peptide, an admixture of both peptides [(III)+(IV)], or with a heterologous peptide. The competition was performed by adding the appropriate peptide(s) to the diluted serum just before adding the serum sample to the microtiter well.

## AWCAFRQVCHTTVPWPNAS [p81]
[1]
  absorbance values: about 0.4
[2]; Serum No. 3541
  absorbance value: 0.025
[2]; Serum No. 3616
  absorbance value: 0.047
[2]; Serum No. 3743
  absorbance value: 0.040
[2]; Serum No. 3923
  absorbance value: 0.067
[2]; Serum No. 3942
  absorbance value: 0.051
[2]; Serum No. 5160
  absorbance value: 0.236
[2]; Serum No. 5182
  absorbance value: 0.102
[2]; Serum No. 5727
  absorbance value: 0.563
[2]; Serum No. 5740
  absorbance value: 0.043
[2]; Serum No. 6598
  absorbance value: 0.205
[2]; Serum No. 6599
  absorbance value: 0.232
[2]; Serum No. 6600
  absorbance value: 0.306
[2]; Serum No. 6601
  absorbance value: 0.138
[2]; Serum No. 6602
  absorbance value: 0.001
[2]; Serum No. 6603
  absorbance value: 0.421
[2]; Serum No. 6604
  absorbance value: 0.400
[2]; Serum No. 6631
  absorbance value: 0.285
[2]; Serum No. 6650
  absorbance value: 0.034
[2]; Serum No. 6661
  absorbance value: 0.160
[2]; Serum No. 6665
  absorbance value: 0.053
[2]; Serum No. 6674
  absorbance value: 0.258
[2]; Serum No. 6683
  absorbance value: 0.489
[2]; Serum No. 6698
  absorbance value: 0.022
[2]; Serum No. 6877
  absorbance value: 0.008

## IWGCSGKLICTTAVP [peptide (II), solid phase antigen of the "E8" assay]
[3]
  Assay result: (+)
[4]
  reactivity of sera with peptide (II) as solid phase antigen after mixing each serum with peptide (II): effectively blocked
[5]
  Mean Absorbance of Normals: 0.016
[6]; 1 sample, AIDS, Sample I.D. 653
  Assay result: (-)
[6]; 2 samples, AIDS, Sample I.D. 533,3621
  Assay result: (-)
[6]; 2 samples, ARC, Sample I.D. 512,529
  Assay result: (-)
[7]; 1 sample, Normal, Sample ID 749
  Assay result: -
[7]; 1 sample, Normal, Sample ID 2846
  Assay result: +
[7]; 198 samples, Diagnosis Normal
  Assay result: -

## IWGCSGKLICTTAVPWNAS [peptide (III)]
[8]; result in words
  competition with formula (I) peptide on the plate: competed very effectively
[8]; sample 013, unblocked 1.177
  absorbance with competing peptide: 0.046
[8]; sample 014, unblocked 0.383
  absorbance with competing peptide: 0.067
[9]; serum sample 0509 (group B)
  absorbance values: 0.403
[9]; serum sample 0649 (group A)
  absorbance values: 1.756
[9]; serum sample 0653 (group B)
  absorbance values: 0.111
[9]; serum sample 0662 (group B)
  absorbance values: 0.301
[9]; serum sample 3362 (group A)
  absorbance values: 0.503
[9]; serum sample 3411 (group C)
  absorbance values: >2.00
[9]; serum sample 3412 (group A)
  absorbance values: >2.00
[9]; serum sample 3413 (group C)
  absorbance values: >2.00
[9]; serum sample 3414 (group C)
  absorbance values: 1.453
[9]; serum sample 3416 (group C)
  absorbance values: 1.914
[9]; serum sample 3456 (group C)
  absorbance values: 1.670
[9]; serum sample 3555 (group B)
  absorbance values: 0.428
[9]; serum sample 3575 (group B)
  absorbance values: 0.350
[9]; serum sample 3666 (group C)
  absorbance values: >2.00
[9]; serum sample 3693 (group A)
  absorbance values: 0.559
[9]; serum sample 3722 (group A)
  absorbance values: 0.620
[9]; serum sample 3744 (group B)
  absorbance values: 0.311
[9]; serum sample 3790 (group B)
  absorbance values: 0.224
[10]; sample 3412, unblocked 1.450
  absorbance with competing peptide: 0.113
[10]; sample 3413, unblocked >2.00
  absorbance with competing peptide: 0.381
[10]; sample 3416, unblocked >2.00
  absorbance with competing peptide: 1.811
[10]; sample 3544, unblocked 1.810
  absorbance with competing peptide: 0.876
[10]; sample 3575, unblocked 1.267
  absorbance with competing peptide: 0.982
[10]; sample 3693, unblocked 0.340
  absorbance with competing peptide: 0.103
[10]; sample 3790, unblocked 1.558
  absorbance with competing peptide: 1.320

## CSGKLIC [(I)]
[8]; sample 013, unblocked 1.177
  absorbance with competing peptide: 0.038
[8]; sample 014, unblocked 0.383
  absorbance with competing peptide: 0.050
